Laboratory results taken from US4073912A, “Piperidylidene derivatives of benzo-fused xanthenes, thioxanthenes and dibenzoxepins and antipsychotic use thereof” (priority 1976, dated 1978).
Counter-ions that a name gives are not always drawn. Like-named read-outs stand apart in the source and are kept apart here.

Columns and labels:
in vivo = type: in vivo, rat; settings: rat, in vivo, ip, rat
Description: (§1) There is evidence that antipsychotic drugs cause EPS by interfering with neurotransmission in a nigrostriatal dopaminergic pathway. It is thought that they block dopamine receptors in the neostriatum. Therefore, the ability of a drug to block striatal dopamine receptors is a measure of its EPS liability.
(§2) This treatment causes degeneration of the nigrostriatal dopaminergic pathway accompanied by a marked decrease in the dopamine content of the neostriatum on the side of the lesion. Animals with this lesion develop postural and motor asymmetries which are altered by drugs which affect dopaminergic activity. Amphetamine, which releases dopamine and norepinephrine from catecholaminergic neurons, causes these rats to rotate unidirectionally toward the side of the lesion; i.e., ipsilaterally. Since there is a much larger amount of dopamine to be released by amphetamine from the intact nigrostriatal neurons on the non-lesioned side than from those remaining on the lesioned side, the rotational behavior is apparently due to a preponderance of activation of striatal dopamine receptors on the intact side. The ability of a drug to antagonize the rotational behavior is therefore a measure of its ability to block striatal dopamine receptors and is indicative of its potential to produce EPS.
(§3) To predict the potential ability of a drug to cause EPS, the ratio of its ED50 (i.p.) for antagonism of amphetamine-induced rotation to its ED50 (i.p.) for blockade of shock avoidance acquisition in the rat, a procedure for assessing antipsychotic activity, (R/A ratio) is calculated. The ED50 values of some clinically established antipsychotics in the avoidance and rotational tests and the R/A ratios are presented in Table I.

[1] = system: striatal dopamine receptors; test: in vivo; type: in vivo, rat; settings: for ED50 for antagonism of amphetamine-induced rotation (R): rats with unilateral 6-hydroxydopamine lesion, i.p.; for R/A ratio: rat
Description: as §1, §2, §3

[2] = system: shock avoidance acquisition; test: Blockade (antagonism) of shock avoidance acquisition in rats; type: in vivo; settings: Rattus norvegicus, ip, read-out: ED50 for antagonism (blockade) of avoidance acquisition (A)
Description: as §3

[3] = compared with chlorpromazine; cited from earlier work
[4] = ED50 (i.p.) rotation / ED50 (i.p.) avoidance, high ratio predicts low potential to produce EPS, read-out: R/A ratio

SMILES | selectivity ratio (in vivo; [4]) | EPS liability ([1]; indicated by R/A ratio of 10) | ED50 for antagonism of amphetamine-induced rotation (R) [1] [mg/kg] | ED50 ([2]; rats, i.p.) [mg/kg] | ED50 [2] [mg/kg] | selectivity ratio (in vivo; read-out: R/A ratio) | propensity to cause EPS [3] | selectivity ratio (in vivo; R/A ratio) | R/A ratio ([1]; in vivo, ip) | R/A ratio ([1]; ED50 (i.p.) rotation / ED50 (i.p.) avoidance, high ratio predicts low potential to produce EPS)
CN1CCC(=C2c3ccccc3Oc3ccc4ccccc4c32)CC1 [12-(1-methyl-4-piperidylidene)-12H-benzo a!xanthene hydrochloride] | 10 | essentially free of EPS liability | 6.4 | 0.64 | – | – | – | – | – | –
CN(C)CCCN1c2ccccc2Sc2ccc(Cl)cc21 [Chlorpromazine] | 1.3 | – | 2.0 | – | 1.5 | – | – | – | – | –
CN1CCN(C2=Nc3cc(Cl)ccc3Nc3ccccc32)CC1 [Clozapine] | – | – | – | 6.6 | – | 3.8 | produce EPS to a lesser extent than chlorpromazine | – | – | –
O=C(CCCN1CCC(O)(c2ccc(Cl)cc2)CC1)c1ccc(F)cc1 [Haloperidol] | – | – | 0.05 | – | 0.16 | – | considerably greater propensity to cause EPS than chlorpromazine | 0.31 | 0.3 to 0.5 | –
O=c1[nH]c2ccccc2n1C1CCN(CCCC(c2ccc(F)cc2)c2ccc(F)cc2)CC1 [Pimozide] | 0.3 | – | 0.08 | – | 0.24 | – | considerably greater propensity to cause EPS than chlorpromazine | – | – | 0.3 to 0.5
CSc1ccc2c(c1)N(CCC1CCCCN1C)c1ccccc1S2 (centres unmarked) [Thioridazine] | – | – | – | 5.1 | – | – | – | – | – | –
CN1CCN(CCCN2c3ccccc3Sc3ccc(C(F)(F)F)cc32)CC1 [Trifluoperazine] | – | – | 0.12 | 0.26 | – | – | considerably greater propensity to cause EPS than chlorpromazine | 0.46 | 0.3 to 0.5 | –
